Laboratory results taken from US9399626B2, “2-thiopyrimidinones” (Pfizer Inc., priority 2011, dated 2016).
Structures can show the parent of a compound that is named as a salt.

Target: T1, MPO (purified from human polynuclear leukocytes) (Homo sapiens, UniProt P05164)
T1 construct: purified from human polynuclear leukocytes; purchased Calbiochem/EMD Biosciences; host or cells: human polynuclear leukocytes (natural source)
Test: MPO Amplex Red Activity Assay
Type: biochemical
Settings: Table 1, 2 μM H2O2, pH 7.4
Outline: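 Potency is given as kinact/KI: kobs values from 600 s progress curves, minus the uninhibited rate, are fit against inhibitor concentration. Reactions use 2 μM H2O2, 30 μM Amplex Red, pH 7.4 phosphate buffer with NaCl, DTPA and 2% DMSO, started with […] human MPO. Readout is resorufin fluorescence, catalase background subtracted.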

T1 sequence (P05164 279-745 limits assumed): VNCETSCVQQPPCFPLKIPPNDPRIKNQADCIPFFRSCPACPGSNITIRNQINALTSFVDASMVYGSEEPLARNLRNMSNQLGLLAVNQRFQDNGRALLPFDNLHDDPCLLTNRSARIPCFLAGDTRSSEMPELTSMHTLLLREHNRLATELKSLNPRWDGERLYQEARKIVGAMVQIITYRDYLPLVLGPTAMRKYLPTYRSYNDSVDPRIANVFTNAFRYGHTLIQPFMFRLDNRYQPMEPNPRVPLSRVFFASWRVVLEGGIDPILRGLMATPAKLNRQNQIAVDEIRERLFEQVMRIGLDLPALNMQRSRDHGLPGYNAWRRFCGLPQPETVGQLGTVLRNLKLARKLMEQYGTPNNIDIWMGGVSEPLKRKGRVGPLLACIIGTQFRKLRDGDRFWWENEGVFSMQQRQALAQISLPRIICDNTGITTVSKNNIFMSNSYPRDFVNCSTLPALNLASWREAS
T1 sequence (P05164 165-273 limits assumed): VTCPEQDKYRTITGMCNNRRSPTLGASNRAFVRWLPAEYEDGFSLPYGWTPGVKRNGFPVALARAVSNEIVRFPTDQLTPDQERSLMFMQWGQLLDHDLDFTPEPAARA

SMILES	MPO kinact/Ki
COc1cc(OC)c(-c2cc(=O)[nH]c(=S)n2CC(N)=O)cc1OC [Example 124, 2-[4-oxo-2-thioxo-6-(2,4,5-trimethoxyphenyl)-3,4-dihydropyrimidin-1(2H)-yl]acetamide]	4610 1/s per M
COc1ccc(-c2cc(=O)[nH]c(=S)n2C[C@H](O)CN)c(OC)c1 [Example 197, 1-[(2R)-3-amino-2-hydroxypropyl]-6-(2,4-dimethoxyphenyl)-2-thioxo-2,3-dihydropyrimidin-4(1H)-one trifluoroacetate]	5650 1/s per M
COc1ccc(-c2cc(=O)[nH]c(=S)n2C[C@H]2CCCO2)c(OC)c1 [Example 214, 6-(2,4-dimethoxyphenyl)-1-[(2R)-tetrahydrofuran-2-ylmethyl]-2-thioxo-2,3-dihydropyrimidin-4(1H)-one]	10700 1/s per M
COCCn1c(-c2cc3c(cc2OC)CCCC3)cc(=O)[nH]c1=S [Example 341, 1-(2-methoxyethyl)-6-(3-methoxy-5,6,7,8-tetrahydronaphthalen-2-yl)-2-thioxo-2,3-dihydropyrimidin-4(1H)-one]	14300 1/s per M
COc1ccc(-c2cc(=O)[nH]c(=S)n2CC(=O)O)c(OC)c1 [Example 89, [6-(2,4-dimethoxyphenyl)-4-oxo-2-thioxo-3,4-dihydropyrimidin-1(2H)-yl]acetic acid]	276 1/s per M
COc1ccc(Cl)cc1-c1cc(=O)[nH]c(=S)n1CC(N)=O [Example 1, 2-(6-(5-Chloro-2-methoxyphenyl)-4-oxo-2-thioxo-3,4-dihydropyrimidin-1(2H)-yl)acetamide]	11600 1/s per M
COc1ccc(-c2cc(=O)[nH]c(=S)n2CCO)c(OC)c1 [Example 3, 6-(2,4-Dimethoxyphenyl)-1-(2-hydroxyethyl)-2-thioxo-2,3-dihydropyrimidin-4(1H)-one]	29300 1/s per M
COc1ccc(-c2cc(=O)[nH]c(=S)n2C[C@H]2CCCN2)c(OC)c1 [Example 267, 6-(2,4-dimethoxyphenyl)-1-[(2R)-pyrrolidin-2-ylmethyl]-2-thioxo-2,3-dihydropyrimidin-4(1H)-one hydrochloride]	3840 1/s per M
COCCn1c(-c2cccc3c2OCCO3)cc(=O)[nH]c1=S [Example 80, 6-(2,3-dihydro-1,4-benzodioxin-5-yl)-1-(2-methoxyethyl)-2-thioxo-2,3-dihydropyrimidin-4(1H)-one]	4130 1/s per M
COc1cccc(OC)c1-c1cc(=O)[nH]c(=S)n1C [Example 157, 6-(2,6-dimethoxyphenyl)-1-methyl-2-thioxo-2,3-dihydropyrimidin-4(1H)-one]	7320 1/s per M
COCCn1c(-c2ccc3c(c2)CCO3)cc(=O)[nH]c1=S [Example 308, 6-(2,3-dihydro-1-benzofuran-5-yl)-1-(2-methoxyethyl)-2-thioxo-2,3-dihydropyrimidin-4(1H)-one]	5340 1/s per M
NCCn1c(-c2ccccc2OCC(N)=O)cc(=O)[nH]c1=S [Example 272, 2-{2-[3-(2-aminoethyl)-6-oxo-2-thioxo-1,2,3,6-tetrahydropyrimidin-4-yl]phenoxy}acetamide trifluoroacetate]	3160 1/s per M
COc1ccc(-c2cc(=O)[nH]c(=S)n2Cc2cnc(C)cn2)c(OC)c1 [Example 247, 6-(2,4-dimethoxyphenyl)-1-[(5-methylpyrazin-2-yl)methyl]-2-thioxo-2,3-dihydropyrimidin-4(1H)-one]	3060 1/s per M
COc1ccc(C)cc1-c1cc(=O)[nH]c(=S)n1CCO [Example 161, 1-(2-hydroxyethyl)-6-(2-methoxy-5-methylphenyl)-2-thioxo-2,3-dihydropyrimidin-4(1H)-one]	29600 1/s per M
COc1ccc(-c2cc(=O)[nH]c(=S)n2CCOCCNC(=N)N)c(OC)c1 [Example 140, 1-(2-{2-[6-(2,4-dimethoxyphenyl)-4-oxo-2-thioxo-3,4-dihydropyrimidin-1(2H)-yl]ethoxy}ethyl) guanidine formate]	10400 1/s per M
COc1ccc(Cl)cc1-c1cc(=O)[nH]c(=S)n1CCCNC(N)=O [Example 148, 1-{3-[6-(5-chloro-2-methoxyphenyl)-4-oxo-2-thioxo-3,4-dihydropyrimidin-1(2H)-yl]propyl}urea]	6690 1/s per M
COc1cc(-c2cc(=O)[nH]c(=S)n2CCCN)c(OC)cc1C [Example 106, 1-(3-aminopropyl)-6-(2,5-dimethoxy-4-methylphenyl)-2-thioxo-2,3-dihydropyrimidin-4(1H)-one hydrochloride]	10500 1/s per M
NC(=O)Cn1c(-c2cc3ccccc3s2)cc(=O)[nH]c1=S [Example 69, 2-[6-(1-benzothien-2-yl)-4-oxo-2-thioxo-3,4-dihydropyrimidin-1(2H)-yl]acetamide]	4250 1/s per M
COc1cc(-c2cc(=O)[nH]c(=S)n2CC(N)=O)c(OC)cc1C [Example 147, 2-[6-(2,5-dimethoxy-4-methylphenyl)-4-oxo-2-thioxo-3,4-dihydropyrimidin-1(2H)-yl]acetamide]	6500 1/s per M
COCCn1c(-c2cccc(O)c2)cc(=O)[nH]c1=S [Example 287]	2130 1/s per M

Next, values leading:

MPO kinact/Ki	SMILES
7680 1/s per M	COc1ccc(Cl)cc1-c1cc(=O)[nH]c(=S)n1CCN=C(N)N [Example 128, 2-{2-[6-(5-chloro-2-methoxyphenyl)-4-oxo-2-thioxo-3,4-dihydropyrimidin-1(2H)-yl]ethyl} guanidine hydrochloride]
8790 1/s per M	COc1ccc(-c2cc(=O)[nH]c(=S)n2CCO)c(OC)n1 [Example 4, 6-(2,6-Dimethoxypyridin-3-yl)-1-(2-hydroxyethyl)-2-thioxo-2,3-dihydropyrimidin-4(1H)-one]
1920 1/s per M	COc1ccc(-c2cc(=O)[nH]c(=S)n2CCNC(C)=O)c(OC)c1 [Example 215, N-{2-[6-(2,4-dimethoxyphenyl)-4-oxo-2-thioxo-3,4-dihydropyrimidin-1(2H)-yl]ethyl}acetamide]
8110 1/s per M	NCCn1c(-c2cccc3ccoc23)cc(=O)[nH]c1=S [Example 143, 1-(2-aminoethyl)-6-(1-benzofuran-7-yl)-2-thioxo-2,3-dihydropyrimidin-4(1H)-one hydrochloride]
2080 1/s per M	CCOc1ccc(-c2cc(=O)[nH]c(=S)n2CCOC)cc1 [Example 311, 6-(4-ethoxyphenyl)-1-(2-methoxyethyl)-2-thioxo-2,3-dihydropyrimidin-4(1H)-one]
7070 1/s per M	CCOC(=O)CCn1c(-c2ccc(OC)cc2OC)cc(=O)[nH]c1=S [Example 240, ethyl 3-[6-(2,4-dimethoxyphenyl)-4-oxo-2-thioxo-3,4-dihydropyrimidin-1(2H)-yl]propanoate]
5740 1/s per M	COc1ccc(-c2cc(=O)[nH]c(=S)n2CC(=O)NC(=N)N)c(OC)c1 [Example 236, N-[amino(imino)methyl]-2-[6-(2,4-dimethoxyphenyl)-4-oxo-2-thioxo-3,4-dihydropyrimidin-1(2H)-yl]acetamide trifluoroacetate]
6960 1/s per M	COCCn1c(-c2c(OC)cccc2OC)cc(=O)[nH]c1=S [Example 180, 6-(2,6-dimethoxyphenyl)-1-(2-methoxyethyl)-2-thioxo-2,3-dihydropyrimidin-4(1H)-one]
7690 1/s per M	COc1cc(-c2cc(=O)[nH]c(=S)n2CCO)c(OC)cc1Cl [Example 206, 6-(4-chloro-2,5-dimethoxyphenyl)-1-(2-hydroxyethyl)-2-thioxo-2,3-dihydropyrimidin-4(1H)-one]
4520 1/s per M	COc1ccc(-c2cc(=O)[nH]c(=S)n2Cc2ccncc2)c(OC)c1 [Example 232, 6-(2,4-dimethoxyphenyl)-1-(pyridin-4-ylmethyl)-2-thioxo-2,3-dihydropyrimidin-4(1H)-one]

Same assay, conditions: Table 1A, 2 μM H2O2, pH 7.4

SMILES	MPO kinact/Ki
COc1cc(OCC(N)=O)ccc1-c1cc(=O)[nH]c(=S)n1CCN [Example 423, 2-{4-[3-(2-aminoethyl)-6-oxo-2-thioxo-1,2,3,6-tetrahydropyrimidin-4-yl]-3-methoxyphenoxy}acetamide]	3290 1/s per M
COc1cccc(OC)c1-c1cc(=O)[nH]c(=S)n1CC(N)=O [Example 386, 2-[6-(2,6-dimethoxyphenyl)-4-oxo-2-thioxo-3,4-dihydropyrimidin-1(2H)-yl}acetamide]	4960 1/s per M
COc1ccc(-c2cc(=O)[nH]c(=S)n2CCO)c(OCCO)c1 [Example 409, 6-[2-(2-hydroxyethoxy)-4-methoxyphenyl]-1-(2-hydroxyethyl)-2-thioxo-2,3-dihydropyrimidin-4(1H)-one]	18000 1/s per M
NC(=O)Cn1c(-c2cc(Cl)ccc2O)cc(=O)[nH]c1=S [Example 377, 2-[6-(5-chloro-2-hydroxyphenyl)-4-oxo-2-thioxo-3,4-dihydropyrimidin-1(2H)-yl]acetamide]	8770 1/s per M
NCCCn1c(-c2cc(F)ccc2OCCO)cc(=O)[nH]c1=S [Example 406, 1-(3-aminopropyl)-6-[5-fluoro-2-(2-hydroxyethoxy)phenyl]-2-thioxo-2,3-dihydropyrimidin-4(1H)-one]	4480 1/s per M

Further lines, results first:

MPO kinact/Ki	SMILES
8690 1/s per M	COc1ccc(-c2cc(=O)[nH]c(=S)n2CC(=O)N[C@@H]2CCNC2)c(OC)c1 [Example 388, 2-[6-(2,4-dimethoxyphenyl)-4-oxo-2-thioxo-3,4-dihydropyrimidin-1(2H)-yl]-N-[(3R)-pyrrolidin-3-yl]acetamide]
6870 1/s per M	NCCNC(=O)Cn1c(-c2cc(Cl)ccc2OCCO)cc(=O)[nH]c1=S [Example 424, N-(2-aminoethyl)-2-{6-[5-chloro-2-(2-hydroxyethoxy)phenyl]-4-oxo-2-thioxo-3,4-dihydropyrimidin-1(2H)-yl}acetamide]
